{"source": "patent US20220040324A1", "about": "“COMBINATION OF ANTIBODY-DRUG CONJUGATE AND KINASE INHIBITOR” (DAIICHI SANKYO COMPANY, LIMITED, priority 2018, published 2022)", "molecules": {"B1": {"name": "antibody-drug conjugate (3): anti-CDH6 antibody (SEQ ID NO: 9 residues 20-471, SEQ ID NO: 10 residues 21-233) conjugated to the drug-linker via thioether bond; DAR 7 to 8 (conjugate, chains of the INN, looked up)", "VH": "EVQLVQSGAEVKKPGASVKVSCKASGYTFTRNFMHWVRQAPGQGLEWMGWIYPGDGETEYAQKFQGRVTITADTSTSTAYMELSSLRSEDTAVYYCARGVYGGFAGGYFDFWGQGTLVTVSS", "VL": "DIQMTQSPSSLSASVGDRVTITCKASQNIYKNLAWYQQKPGKAPKLLIYDANTLQTGVPSRFSGSGSGSDFTLTISSLQPEDFATYFCQQYYSGWAFGQGTKVEIK", "modifications": "deruxtecan-type drug-linker, DAR 7-8"}}, "key": {"[1]": {"tested_on": "MDA-MB-453 cells", "assay": "Antitumor test (9): nude mice with subcutaneously transplanted MDA-MB-453 cells", "type": "in vivo, human", "details": "single administration", "protocol": "(§1) Mouse: 5 to 6-week-old BALB/c nude mice (Charles River Laboratories Japan, Inc.) were subjected to experiment.\n(§2) Assay and calculation expression: In all of the studies, the major axis and minor axis of a tumor were measured twice a week by using an electronic digital caliper (CD15-CX, Mitutoyo Corp.), and the tumor volume (mm^3) was calculated. The calculation expression is as shown below.\n(§3) Tumor volume (mm^3)=1/2×Major axis (mm)×[Minor axis (mm)]^2\nPalbociclib was suspended in 0.5% methyl cellulose, and orally administered once a day, five times a week, at a dose of 50 mg/kg (a liquid volume of 10 mL/kg) for three weeks from Day 0."}, "[2]": {"tested_on": "MDA-MB-453 cells", "assay": "Antitumor test (10): nude mice with subcutaneously transplanted MDA-MB-453 cells", "type": "in vivo, human", "details": "single administration", "protocol": "as §1, §2, §3\nMDA-MB-453 cells, a human breast cancer cell line, obtained from ATCC were suspended in Matrigel basement membrane matrix, and 1×10^7 cells were subcutaneously transplanted to the right flank of each female nude mouse, and the mice were randomly grouped 7 days after the transplantation (Day 0). The antibody-drug conjugate (2) was diluted with ABS buffer, and intravenously administered to the tail vein of each mouse once a week at a dose of 1 mg/kg (a liquid volume of 10 mL/kg) for three weeks (Days 0, 7, 14). Alpelisib was suspended in 0.5% methyl cellulose, and orally administered once a day, five times a week, at a dose of 25 mg/kg (a liquid volume of 10 mL/kg) for three weeks from Day 0. Single administration groups and a combined administration group with the antibody-drug conjugate (2) and alpelisib, and an ABS administration group as a control group were established."}, "[3]": {"tested_on": "KPL-4 cells", "assay": "Antitumor test (7): nude mice with subcutaneously transplanted KPL-4 cells", "type": "in vivo, human", "details": "single administration", "protocol": "as §1, §2, §3\nKPL-4 cells, a human breast cancer cell line, obtained from Dr. Junichi Kurebayashi, Kawasaki Medical School (British Journal of Cancer. (1999)79 (5/6). 707-717) were suspended in physiological saline, and 1.5×10^7 cells were subcutaneously transplanted to the right flank of each female nude mouse, and the mice were randomly grouped 17 days after the transplantation (Day 0). The antibody-drug conjugate (2) was diluted with ABS buffer, and intravenously administered to the tail vein of each mouse once a week at a dose of 10 mg/kg (a liquid volume of 10 mL/kg) for three weeks (Days 0, 7, 14). Neratinib was suspended in 0.5% methyl cellulose, and orally administered once a day, five times a week, at a dose of 20 mg/kg (a liquid volume of 10 mL/kg) for two weeks. Single administration groups and a combined administration group with the antibody-drug conjugate (2) and neratinib, and an ABS administration group as a control group were established."}, "[4]": {"tested_on": "JIMT-1 cells", "assay": "Antitumor test (2): nude mice with subcutaneously transplanted JIMT-1 cells", "type": "in vivo, human", "details": "single administration; everolimus 5 mg/kg once a day, five times a week, seven times in total", "protocol": "as §1, §2, §3\n(§4) Everolimus was suspended in 30% propylene glycol and 5% Tween 80, and orally administered at a liquid volume of 10 mL/kg. Taselisib was suspended in 0.5% methyl cellulose and 0.2% Tween 80, and orally administered at a liquid volume of 10 mL/kg. Abemaciclib was suspended in 1% hydroxyethyl cellulose and 0.1% antifoam/25 mM phosphate buffer, pH2, and orally administered at a liquid volume of 10 mL/kg."}, "[5]": {"tested_on": "MDA-MB-453 cells", "assay": "Antitumor test (1): nude mice with subcutaneously transplanted MDA-MB-453 cells", "type": "in vivo, human", "details": "single administration, five times a week", "protocol": "as §1, §2, §3, §4\nEverolimus was administered once a day, five times a week, at a dose of 5 mg/kg for 3 weeks. Taselisib was administered once a day, five times a week, at a dose of 5 mg/kg for 3 weeks. Abemaciclib was administered once a day, five times a week, at a dose of 30 mg/kg for 2 weeks."}, "[6]": {"tested_on": "KPL-4 cells", "assay": "Antitumor test (4): nude mice with subcutaneously transplanted KPL-4 cells", "type": "in vivo, human", "details": "single administration; tucatinib 100 mg/kg orally once a day, five times a week, two weeks", "protocol": "as §1, §2, §3, §4"}, "[7]": {"tested_on": "MDA-MB-453 cells", "assay": "Antitumor test (5): nude mice with subcutaneously transplanted MDA-MB-453 cells", "type": "in vivo, human", "details": "single administration; tucatinib 100 mg/kg once a day, five times a week, three weeks", "protocol": "as §1, §2, §3, §4"}, "[8]": {"tested_on": "NCI-N87 cells", "assay": "Antitumor test (6): nude mice with subcutaneously transplanted NCI-N87 cells", "type": "in vivo, human", "details": "single administration; tucatinib 100 mg/kg once a day, five times a week, two weeks", "protocol": "as §1, §2, §3, §4"}, "[9]": {"tested_on": "NCI-N87 cell line", "type": "cell-based, human", "details": "6 days culture, >0 synergistic, 0 additive, <0 antagonistic", "protocol": "The human gastric cancer cell line NCI-N87 purchased from ATCC was used for evaluation. To a 1536-well cell culture plate, erlotinib (hydrochloride), poziotinib, mubritinib, brigatinib, or BIBF1120 prepared with dimethyl sulfoxide (DMSO) to concentrations of 2 mM, 400 μM, 80 μM, 16 μM, 3.2 μM, and 640 nM, or DMSO was added at 25 nL/well. […] Subsequently, NCI-N87 cells suspended with an RPMI1640 Medium containing 10% fetal bovine serum to a concentration of 4×10^4 cells/mL were seeded at 2.5 μL/well, and cultured at 37° C. under 5% CO2 for 6 days.\n(§5) After culturing, a solution obtained by diluting CellTiter-Glo 2.0 Assay (Promega Corporation) with an equivalent amount of Glo Lysis buffer, 1×(Promega Corporation) was added at 2 μL/well, and incubation was performed at room temperature for 1 hour, and luminescence intensity was then measured for each well.\n(§6) Cell growth inhibition rate (%) was calculated by using the following calculation expression.\n(§7) T: Mean luminescence intensity of wells with specimen B: Mean luminescence intensity of wells with DMSO and medium C: Mean luminescence intensity of wells with DMSO and cells\n(§8) Sigmoid fitting with Genedata Screener Analyzer Version 14 (Genedata AG, hereinafter referred to as Screener) was performed for concentration-dependent transition of cell growth inhibition rates under each of combined use conditions."}, "[10]": {"tested_on": "BxPC-3 cell line", "type": "cell-based, human", "details": "combined with mubritinib, 6 days culture, >0 synergistic, 0 additive, <0 antagonistic", "protocol": "as §6, §7, §8, §5"}, "[11]": {"tested_on": "EBC-1 cell line", "type": "cell-based, human", "details": "combined with mubritinib, 6 days culture, >0 synergistic, 0 additive, <0 antagonistic", "protocol": "as §6, §7, §8"}, "[12]": {"tested_on": "KPL-4 cell line", "type": "cell-based, human", "details": "6 days culture, >0 synergistic, 0 additive, <0 antagonistic", "protocol": "as §6, §7, §8"}, "[13]": {"tested_on": "COLO201 cells", "assay": "Antitumor test (3): nude mice with subcutaneously transplanted COLO201 cells", "type": "in vivo, human", "details": "single administration; regorafenib 10 mg/kg orally once a day, five times a week, three weeks", "protocol": "as §1, §2, §3, §4"}, "[14]": {"tested_on": "786-0 cells", "assay": "Antitumor test (8): nude mice with subcutaneously transplanted 786-0 cells", "type": "in vivo, human", "details": "single administration", "protocol": "as §1, §2, §3\nSuspended in 100% Matrigel were 786-0 cells, a human kidney cancer cell line, purchased from ATCC, and 4×10^6 cells were subcutaneously transplanted to the right flank of each female nude mouse, and the mice were randomly grouped 19 days after the transplantation (Day 0). […] Cabozantinib was administered once a day, five times a week, 20 times in total, at a dose of 40 mg/kg."}}}
{"molecule": "antibody-drug conjugate (2): anti-HER3 antibody (SEQ ID NO: 3 and 4) conjugated to the drug-linker via thioether bond; DAR 7 to 8", "values": [{"measurement": "tumor growth inhibition (TGI)", "setting": "[1]; antibody-drug conjugate (2) 1 mg/kg iv once a week, three weeks (Days 0, 7, 14), grouped 11 days after transplantation", "value": 54, "unit": "%"}, {"measurement": "tumor growth inhibition (TGI)", "setting": "[2]; antibody-drug conjugate (2) 1 mg/kg iv once a week, three weeks (Days 0, 7, 14), grouped 7 days after transplantation", "value": 68, "unit": "%"}, {"measurement": "tumor growth inhibition (TGI)", "setting": "[3]; antibody-drug conjugate (2) 10 mg/kg iv once a week, three weeks (Days 0, 7, 14)", "value": 67, "unit": "%"}]}
{"molecule": "CO[C@H]1C[C@@H]2CC[C@@H](C)[C@@](O)(O2)C(=O)C(=O)N2CCCC[C@H]2C(=O)O[C@H]([C@H](C)C[C@@H]2CC[C@@H](OCCO)[C@H](OC)C2)CC(=O)[C@H](C)/C=C(\\C)[C@@H](O)[C@@H](OC)C(=O)[C@H](C)C[C@H](C)/C=C/C=C/C=C/1C", "note": "[everolimus]", "values": [{"measurement": "tumor growth inhibition (TGI)", "setting": "[4]", "value": 52, "unit": "%"}, {"measurement": "tumor growth inhibition (TGI)", "setting": "[5]; everolimus 5 mg/kg orally once a day, 3 weeks, BALB/c nude mice, day of effect determination", "value": 64, "unit": "%"}]}
{"molecule": "Cc1cc(Nc2ncnc3ccc(NC4=NC(C)(C)CO4)cc23)ccc1Oc1ccn2ncnc2c1", "note": "[tucatinib]", "values": [{"measurement": "tumor growth inhibition (TGI)", "setting": "[6]", "value": 78, "unit": "%"}, {"measurement": "tumor growth inhibition (TGI)", "setting": "[7]", "value": 36, "unit": "%"}, {"measurement": "tumor growth inhibition (TGI)", "setting": "[8]", "value": 65, "unit": "%"}]}
{"molecule": "CC[C@@]1(O)C(=O)OCc2c1cc1n(c2=O)Cc2c-1nc1cc(F)c(C)c3c1c2[C@@H](NC(=O)CO)CC3", "note": "[Compound (1)]", "values": [{"measurement": "Synergy Score, combination with BIBF1120", "setting": "[9]; combined with BIBF1120 (nintedanib)", "value": "−0.44"}, {"measurement": "Synergy Score, combination with Mubritinib", "setting": "[9]; combined with mubritinib", "value": "−0.45"}, {"measurement": "Synergy Score, combination with Poziotinib", "setting": "[9]; combined with poziotinib", "value": "−0.53"}, {"measurement": "Synergy Score, combination with Mubritinib", "setting": "[10]", "value": "−0.40"}, {"measurement": "Synergy Score, combination with Mubritinib", "setting": "[11]", "value": "−0.60"}, {"measurement": "Synergy Score, combination with Brigatinib", "setting": "[12]; combined with brigatinib", "value": "−0.02"}, {"measurement": "Synergy Score, combination with Poziotinib", "setting": "[12]; combined with poziotinib", "value": "−0.38"}]}
{"molecule": "CCN1CCN(Cc2ccc(Nc3ncc(F)c(-c4cc(F)c5nc(C)n(C(C)C)c5c4)n3)nc2)CC1", "note": "[abemaciclib]", "values": [{"measurement": "tumor growth inhibition (TGI)", "setting": "[5]; abemaciclib 30 mg/kg orally once a day, 2 weeks", "value": 68, "unit": "%"}]}
{"molecule": "CCOc1cc2ncc(C#N)c(Nc3ccc(OCc4ccccn4)c(Cl)c3)c2cc1NC(=O)/C=C/CN(C)C", "note": "[neratinib]", "values": [{"measurement": "tumor growth inhibition (TGI)", "setting": "[3]; neratinib 20 mg/kg orally once a day, five times a week, two weeks, day of effect determination", "value": 84, "unit": "%"}]}
{"molecule": "Cc1nc(-c2cn3c(n2)-c2ccc(-c4cnn(C(C)(C)C(N)=O)c4)cc2OCC3)n(C(C)C)n1", "note": "[taselisib]", "values": [{"measurement": "tumor growth inhibition (TGI)", "setting": "[5]; taselisib 5 mg/kg orally once a day, 3 weeks", "value": 67, "unit": "%"}]}
{"molecule": "CC(=O)c1c(C)c2cnc(Nc3ccc(N4CCNCC4)cn3)nc2n(C2CCCC2)c1=O", "note": "[palbociclib]", "values": [{"measurement": "tumor growth inhibition (TGI)", "setting": "[1]; palbociclib 50 mg/kg orally once a day, five times a week, three weeks from Day 0", "value": 72, "unit": "%"}]}
{"molecule": "CNC(=O)c1cc(Oc2ccc(NC(=O)Nc3ccc(Cl)c(C(F)(F)F)c3)c(F)c2)ccn1", "note": "[regorafenib]", "values": [{"measurement": "tumor growth inhibition (TGI)", "setting": "[13]", "value": 81, "unit": "%"}]}
{"molecule": "COc1cc2nccc(Oc3ccc(NC(=O)C4(C(=O)Nc5ccc(F)cc5)CC4)cc3)c2cc1OC", "note": "[cabozantinib]", "values": [{"measurement": "tumor growth inhibition (TGI)", "setting": "[14]; cabozantinib 40 mg/kg once a day, five times a week, 20 times in total", "value": 67, "unit": "%"}]}
{"molecule": "Cc1nc(NC(=O)N2CCC[C@H]2C(N)=O)sc1-c1ccnc(C(C)(C)C(F)(F)F)c1", "note": "[alpelisib]", "values": [{"measurement": "tumor growth inhibition (TGI)", "setting": "[2]; alpelisib 25 mg/kg orally once a day, five times a week, three weeks from Day 0", "value": 56, "unit": "%"}]}
{"molecule": "B1", "values": [{"measurement": "tumor growth inhibition (TGI)", "setting": "[14]; antibody-drug conjugate (3) 10 mg/kg iv on Day 0", "value": 71, "unit": "%"}]}
